From PMC5929572, “Nucleobases and corresponding nucleosides display potent antiviral activities against dengue virus possibly through viral lethal mutagenesis” (PLoS Neglected Tropical Diseases, 2018)
Like-named read-outs stand apart in the source and are kept apart here.

Assays:
DENV-2 viral replicon = experiment: microbe, parasite or virus in culture; type: cell-based; conditions: Dengue virus
Experimental: Compounds were evaluated for antiviral properties using BHK cells containing a DENV-2 viral replicon. 1.5 × 10^3 replicon-containing cells per well were plated in white opaque 96-well plates in the absence of antibiotic selection and the next day, compounds dissolved in DMSO were added to triplicate wells in culture medium. The compounds were initially tested at 10 and 50 μM final concentrations and each plate also contained DMSO alone, medium alone, and 6. Three days later, medium was replaced with a 1:1000 dilution of ViVi-Ren Live Cell Substrate (Promega) in DME minus phenol red and 10% FBS. Luminescence was measured with a Molecular Devices M5e plate reader. Mean values of triplicate wells were determined and compared to the mean value for the wells that received DMSO alone. […] The EC50 was determined by comparing luciferase activity for eight serial dilutions of the compound and DMSO treated cells using GraphPad Prism software.

[1] = Cell viability assay (MTS) in DENV replicon cells; type: cell-based, baby hamster; conditions: hamster, DENV replicon cells (BHK pD2-hRucPac-2ATG30), DENV replicon BHK cells, MTS, 72 h
[2] = tested on: DENV replicon cells (BHK pD2-hRucPac-2ATG30); experiment: Cell viability assay (MTS) in DENV replicon cells; type: cell-based, baby hamster; conditions: for CC50: DENV replicon BHK cells, MTS, 72 h
DENV-2 [3] = experiment: Virus passage in presence of compound, genome copy number by RT-qPCR (NS5); type: cell-based, DENV-2 New Guinea C strain; conditions: 3b 500 μM, Huh-7, passage 5; limit of detection 30 copies
Experimental: For qPCR determination of viral genome copy number, viral RNA was isolated from 140 μL of drug-treated or DMSO-treated infected culture supernatant using QIAamp Viral RNA mini kit (Qiagen), following manufacturer’s protocol. Viral RNA was quantified using the TaqMan RNA-to-CT 1-Step qPCR Kit (Applied Biosystems). Primers used for qPCR were 5’-[…]-3’ (forward) and 5’-[…]-3’ (reverse) amplifying a region numbering 8928–8988 in the genome (numbering starting from the beginning of genome, accession number KM204118). The qPCR FAM probe sequence is 5’-[…]-3’. Serial 10-fold dilutions of plasmid containing the NS5 gene of DENV were used to generate a standard curve for the quantification of viral RNA genome copy number based on cycle threshold (CT) values. […] Sequences were aligned over a 980-base region that had adequate quality sequencing reads for all clones. Only mutations present in both the forward and reverse reads of a clone were counted. All incidence-based determinants of mutation frequency (Mf min, Mf max, Mfe) were calculated as described.
(§1) Virus was passaged on Huh-7 cells supplemented with 200 μM 3a, 500 μM 3b or DMSO (0.5%). […] The virus titer in the harvested supernatant was determined by plating ten-fold serial dilutions onto single wells of a 24-well plate. […] Supernatant titer was determined from a single well where there were approximately 20–50 plaques when possible. […]

[4] = Cell viability assay (MTS) in Huh-7 cells; type: cell-based; conditions: human
Experimental: The sensitivity of the cell lines to the compounds was examined using the 3-(4,5-dimethylthiazol-2-yl)-5-(3-carboxymethoxyphenyl)-2-(4-sulfophenyl)-2H-tetrazolium (MTS)-based tetrazolium reduction CellTiter 96 Aqueous Non-Radioactive cell proliferation assay (Promega G5430). The compounds were initially tested at 10 and 50 μM final concentrations. Each plate also contained DMSO alone, medium alone, and an inhibitory compound, 6. DENV replicon or Huh-7 cells were plated at a density of 1,500 or 8 × 10^3 cells, respectively, per well in 96-well plates containing 100 μl of culture medium overnight. Compounds were added to triplicate wells in culture medium and incubated for an additional 72 h. MTS reagent was then added to each well and incubated at 37°C in a humidified 5% CO2 atmosphere. The plates were read at various time points at a wavelength of 490 nm using a Molecular Devices M5e plate reader. Mean values of triplicate wells were determined and compared to the mean value for the wells that received DMSO alone. For compounds selected for dose-response experiments, the CC50 was determined by comparing cell viability for eight serial dilutions of the compound and DMSO treated cells using GraphPad Prism software.

DENV-2 [5] = experiment: Titer reduction assay in Huh-7 cells, plaque assay on Vero cells; type: cell-based, DENV-2 New Guinea C strain; conditions: Dengue virus, DENV2, m.o.i. 0.2, 72 h
Experimental: (§2) Huh-7 cells were seeded in 12-well plates at a density of 4×10^5 cells per well in 1 mL culture medium. The next day, cells were washed and inoculated with DENV at a multiplicity of infection (m.o.i.) of 0.2 in 500μl infection medium (MEM containing 2% FBS and 10 mM HEPES). The inoculum was removed after 1h, cells were washed with PBS and then incubated in 1 mL MEM, 2% FBS, 1% pen/strep plus compound for 72 h. Viral supernatants were clarified by centrifugation for 5 min at 1500×g and aliquoted and stored at -80°C. Viral titers were determined using a plaque assay on Vero cells. Briefly, confluent Vero cell monolayers in 24-well plates were incubated at 37°C for 1 h with duplicate 300 μl samples of 10-fold serial dilutions of viral supernatants. The cells were then washed to remove unbound viral particles and overlaid with 500ul MEM containing 1.3% methylcellulose, 5% FBS and 10mM HEPES. After 5 days of incubation at 37°C and 5% CO2, cells were washed with PBS, fixed, and stained using 1% Giemsa. Infectious virus titer (pfu/mL) was determined using the following formula: number of plaques × dilution factor × (1/inoculation volume). The viral titer was presented as the mean of duplicate samples from a dilution yielding approximately 20–50 plaques per well.

DENV-2 [6] = experiment: Virus passage in presence of compound, supernatant titer by plaque assay; type: cell-based, DENV-2 New Guinea C strain; conditions: 3b 500 μM, Huh-7, passages 4 and 5; limit of detection 3.3 pfu/mL
Experimental: as §2, with “After 5 days of incubation at 37°C and 5% CO2, cells were washed with PBS, fixed, and stained using 1% Giemsa.” left out, “The viral titer was presented as the mean of duplicate samples from a dilution yielding approximately 20–50 plaques per well.” left out
as §1

DENV-2 [7] = experiment: Sequence analysis of prM/E region clones from passaged virus (mutation frequency); type: cell-based, DENV-2 New Guinea C strain
Experimental: For qPCR determination of viral genome copy number, viral RNA was isolated from 140 μL of drug-treated or DMSO-treated infected culture supernatant using QIAamp Viral RNA mini kit (Qiagen), following manufacturer’s protocol. Viral RNA was quantified using the TaqMan RNA-to-CT 1-Step qPCR Kit (Applied Biosystems). Primers used for qPCR were 5’-[…]-3’ (forward) and 5’-[…]-3’ (reverse) amplifying a region numbering 8928–8988 in the genome (numbering starting from the beginning of genome, accession number KM204118). The qPCR FAM probe sequence is 5’-[…]-3’. Serial 10-fold dilutions of plasmid containing the NS5 gene of DENV were used to generate a standard curve for the quantification of viral RNA genome copy number based on cycle threshold (CT) values. The limit of detection for NS5 plasmid dilutions was 30 copies (S1 Fig). […] Statistical analysis via GraphPad Prism 5 software. To obtain sequence data from viral RNA isolated at each passage, cDNA was generated via M-MLV reverse transcriptase and random hexamers (New England Biolab Inc.) per manufacturer’s instructions. An approximately 1600-base fragment covering membrane protein (prM) and envelop protein gene (E) of DENV-2 viral genome was amplified using PfuUltra II Fusion HS DNA polymerase (Agilent) with primers prMEfor (5'- […]-3') and prMErev (5'- […] -3'). PCR products were purified using Qiaquick PCR purification kit (Qiagen) and then digested with EcoRI and ligated into pcDNA3.1 for sequencing. Sequence for approximately 40–50 individual clones per sample was obtained from the University of Minnesota Genomics Center. Sequences were aligned over a 980-base region that had adequate quality sequencing reads for all clones. Only mutations present in both the forward and reverse reads of a clone were counted. All incidence-based determinants of mutation frequency (Mf min, Mf max, Mfe) were calculated as described.
Virus was passaged on Huh-7 cells supplemented with 200 μM 3a, 500 μM 3b or DMSO (0.5%). Huh-7 cells were seeded in 12-well plates and inoculated with DENV-2 as described for Titer reduction experiments above except an m.o.i. of 0.01 was used. After 3 days of compound treatment, 50 μL of the harvested supernatant was used to inoculate fresh Huh-7 cells in the continued presence of compound. The virus titer in the harvested supernatant was determined by plating ten-fold serial dilutions onto single wells of a 24-well plate. The wells were washed and overlaid as described in the Titer reduction assay above. If no plaques were obtained in any of the harvested supernatant dilutions, the undiluted supernatant was used. If plaques were not detectable, the virus titer was considered to be at the limit of detection, 1 plaque (3.3 pfu/mL). Supernatant titer was determined from a single well where there were approximately 20–50 plaques when possible. This experiment was repeated three times at the compound concentrations listed.

[8] = DENV2, 72 h, DENV replicon BHK cells, luciferase, 3 days, read-out: EC50
[9] = passage 2, 3a 200 μM, 3b 500 μM, Huh-7
[10] = passage 3, 3a 200 μM, 3b 500 μM, Huh-7

In the case of `NC(=O)c1nc[nH]c1O` [Compound 2a, 5-Hydroxy-1H-imidazole-4-carboxamide], the EC50 (DENV-2 viral replicon; [8]) is reported as 2.4 µM and the CC50 at 72 h [1] is reported as 23 ± 4.2 µM.

With `NC(=O)c1nc[nH]n1` [Compound 1a, 1,2,4-Triazole-3-carboxamide] the EC50 (DENV-2 viral replicon; DENV2, BHK, 72 h) was 4.9 ± 1.6 µM, the CC50 at 72 h [1] was > 1000 µM and the CC50 [2] was > 665 µM. For the same molecule, the cytotoxicity ([2]; at 1000 μM, DENV replicon cells) was “did not show cytotoxicity”.

For `NC(=O)c1ncn([C@@H]2O[C@H](CO)[C@@H](O)[C@H]2O)n1` [Compound 1b, ribavirin, reference compound], the CC50 at 72 h [1] was 20 µM.

For `NC(=O)c1nc(F)c[nH]c1=O` [Compound 5a, 6-fluoro-3-hydroxypyrazine-2-carboxamide, reference compound], the EC50 (DENV-2 viral replicon; DENV2, BHK, 72 h) was 110 ± 30 µM, the CC50 at 72 h [1] was > 1000 µM and the CC50 [2] was > 665 µM.

`COc1c(C)c2c(c(O)c1C/C=C(\C)CCC(=O)O)C(=O)OC2` [Compound 6, mycophenolic acid, reference compound] gave an EC50 (DENV-2 viral replicon; DENV2, BHK, 72 h) of 0.3 ± 0.03 µM and a CC50 at 72 h [1] of 1.4 ± 0.4 µM.

In the case of `NC(=O)c1nccn([C@@H]2O[C@H](CO)[C@@H](O)[C@H]2O)c1=O` [Compound 3b], the “genomic RNA in supernatant” value (DENV-2 [3]) is reported as “undetectable”, the CC50 at 72 h [4] is reported as > 1 mM and the EC50 (DENV-2 [5]) is reported as 60 ± 22 µM. The “infectious virus in supernatant” value (DENV-2 [6]) was “undetectable”, the “number of mutations per clone compared to DMSO” value (DENV-2 [7]; 3a 200 μM passage 4, 3b 500 μM passage 3, p < 0.0001, Mann-Whitney U) was “significant difference” and the “Mf max (maximum mutation frequency)” value (DENV-2 [7]; [9]) was 15.3 per 10,000 nucleotides. The “Mf min (minimum mutation frequency)” value (DENV-2 [7]; [9]) was 10.7 per 10,000 nucleotides, the “Mfe (entity level mutation frequency)” value (DENV-2 [7]; [9]) was 2.4 ×10^−3 and the “Number of clones with mutation/total” value (DENV-2 [7]; [9]) was 22/34. The “Number of different mutations” value (DENV-2 [7]; [9]) was 33, the Number of haplotypes (DENV-2 [7]; [9]) was 22 and the “Number of total mutations” value (DENV-2 [7]; [9]) was 47. The “Transition A→G, number of mutations” value (DENV-2 [7]; [9]) was 6, the “Transition C→U, number of mutations” value (DENV-2 [7]; [9]) was 4 and the “Transition G→A, number of mutations” value (DENV-2 [7]; [9]) was 6. For the same molecule, the “Transition U→C, number of mutations” value (DENV-2 [7]; [9]) was 14, the “Transversion G→U, number of mutations” value (DENV-2 [7]; [9]) was 2 and the “Transversion U→G, number of mutations” value (DENV-2 [7]; [9]) was 1. The “Mf max (maximum mutation frequency)” value (DENV-2 [7]; [10]) was 15.8 per 10,000 nucleotides, the “Mf min (minimum mutation frequency)” value (DENV-2 [7]; [10]) was 4.7 per 10,000 nucleotides and the “Mfe (entity level mutation frequency)” value (DENV-2 [7]; [10]) was 2.2 ×10^−3. The “Number of clones with mutation/total” value (DENV-2 [7]; [10]) was 22/35, the “Number of different mutations” value (DENV-2 [7]; [10]) was 15 and the Number of haplotypes (DENV-2 [7]; [10]) was 17. The “Number of total mutations” value (DENV-2 [7]; [10]) was 50, the “Transition A→G, number of mutations” value (DENV-2 [7]; [10]) was 4 and the “Transition C→U, number of mutations” value (DENV-2 [7]; [10]) was 6. For the same molecule, the “Transition G→A, number of mutations” value (DENV-2 [7]; [10]) was 1, the “Transition U→C, number of mutations” value (DENV-2 [7]; [10]) was 3 and the “Transversion U→A, number of mutations” value (DENV-2 [7]; [10]) was 1. For the same molecule, the CC50 at 72 h [1] was > 1000 µM.

Molecule `NC(=O)c1ncn([C@@H]2O[C@H](CO)[C@@H](O)[C@H]2O)c1O` [Compound 2b, mizoribine, reference compound] has an EC50 (DENV-2 viral replicon; [8]) of 15 µM and a CC50 at 72 h [1] of 33 ± 12 µM.

In the case of `Nc1nc(N)c2ncn([C@@H]3O[C@H](CO)[C@@H](O)[C@H]3O)c2n1` [Compound 4b, 2-Aminoadenosine], the CC50 at 72 h [1] is reported as 31 ± 1.4 µM and the “toxicity, in words” value ([2]; DENV replicon cells) is reported as “too toxic”.

In the case of `Nc1nc(N)c2[nH]cnc2n1` [Compound 4a, 2,6-diaminopurine], the CC50 at 72 h [1] is reported as 13 ± 2.1 µM.
